Patent US20250059182A1, “SOS1 INHIBITORS” (Mirati Therapeutics, Inc., priority 2021, published 2025)
Structures can show the parent of a compound that is named as a salt. Where two headings read alike, the source gives them in different places.

How the values were obtained:
[1] = target: T1, recombinant human SOS1 polypeptide (amino acids 560-1049) (Homo sapiens, UniProt Q07889); assay: HTRF displacement assay: inhibition of labeled tracer binding to SOS1; conditions: Table A1, Morrison equation for competitive binding
T1 construct: corresponding to amino acids 560-1049, expressed in E. Coli; made in house; host or cells: E. coli
T1 sequence (Q07889 560-1049): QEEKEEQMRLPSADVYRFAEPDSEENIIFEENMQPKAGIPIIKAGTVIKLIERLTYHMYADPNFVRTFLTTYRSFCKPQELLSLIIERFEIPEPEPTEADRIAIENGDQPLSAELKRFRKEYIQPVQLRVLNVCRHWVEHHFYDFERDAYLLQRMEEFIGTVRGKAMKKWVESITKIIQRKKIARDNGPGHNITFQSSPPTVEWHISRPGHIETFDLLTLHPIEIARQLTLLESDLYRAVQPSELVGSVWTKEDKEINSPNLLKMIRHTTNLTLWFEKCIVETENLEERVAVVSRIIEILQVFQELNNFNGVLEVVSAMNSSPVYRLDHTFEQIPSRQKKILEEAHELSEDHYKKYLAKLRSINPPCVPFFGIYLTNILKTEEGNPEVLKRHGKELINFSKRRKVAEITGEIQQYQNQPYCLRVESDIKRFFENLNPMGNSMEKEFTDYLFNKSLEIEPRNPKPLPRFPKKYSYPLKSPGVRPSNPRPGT

pERK in MKN1 cells = assay: pERK inhibition, In-Cell Western (LI-COR Odyssey), MKN1 cells; format: cell-based; conditions: Homo sapiens
Method in brief: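 MKN1 cells were exposed for about 0.5–1 h at 37 °C to nine 3-fold dilutions starting at 10 µM. Cells were then fixed in formaldehyde, permeabilised with methanol, and immunostained for pERK and GAPDH with near-infrared secondary antibodies. GAPDH-normalised pERK signal relative to vehicle gave % inhibition, from which IC50 was fitted.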

[2] = MKN-1, Table B1, MKN1 or H358 cells (table does not say which), 0.5-1 hour incubation, read-out: IC50 (nM), pERK inhibition
[3] = MKN-1, read-out: IC50 (nM), pERK inhibition

Row | Structure (SMILES) | Ki [1] | IC50 (pERK in MKN1 cells; [2]) | IC50 (pERK in MKN1 cells; [3])
1 | COC1(c2cc3c(N[C@H](C)c4cccc(C#N)c4C)nnc(C)c3cn2)CCOCC1 [Example P-81, (R)-3-(1-((7-(4-methoxytetrahydro-2H-pyran-4-yl)-4-methylpyrido[3,4-d]pyridazin-1-yl)amino)ethyl)-2-methylbenzonitrile] | 61.7 nM | 565 nM | –
2 | COC1(c2cc3c(N[C@H](C)c4cccc(C#N)c4C)nnc(C)c3cc2F)CCN(C)CC1 [Example P-153, (R)-3-(1-((6-fluoro-7-(4-methoxy-1-methylpiperidin-4-yl)-4-methylphthalazin-1-yl)amino)ethyl)-2-methylbenzonitrile] | 16.6 nM | 909 nM | –
3 | COC1(c2cc3c(N[C@H](C)c4cccc(C#N)c4C)nnc(C)c3cc2F)CCN(C(C)=O)CC1 [Example P-159, (R)-3-(1-((7-(1-acetyl-4-methoxypiperidin-4-yl)-6-fluoro-4-methylphthalazin-1-yl)amino)ethyl)-2-methylbenzonitrile] | 2.2 nM | 100 nM | –
4 | COC1(c2cc3c(N[C@H](C)c4cccc(C#N)c4C)nnc(C)c3cc2F)CCOCC1 [Example P-165, (R)-3-(1-((6-fluoro-7-(4-methoxytetrahydro-2H-pyran-4-yl)-4-methylphthalazin-1-yl)amino)ethyl)-2-methylbenzonitrile] | 4.66 nM | 352 nM | –
5 | Cc1nnc(N[C@H](C)c2cccc(C(C)(F)F)c2F)c2cc(N3CCOCC3)ncc12 [Example P-169, (R)-N-(1-(3-(1,1-difluoroethyl)-2-fluorophenyl)ethyl)-4-methyl-7-morpholinopyrido[3,4-d]pyridazin-1-amine] | 0.827 nM | 71.4 nM | –
6 | Cc1nnc(N[C@H](C)c2cccc(C(C)(F)F)c2F)c2cc(N(C)C)ncc12 [Example P-170, (R)-N1-(1-(3-(1,1-difluoroethyl)-2-fluorophenyl)ethyl)-N7,N7,4-trimethylpyrido[3,4-d]pyridazine-1,7-diamine] | 2.18 nM | 192 nM | –
7 | Cc1nnc(N[C@H](C)c2cccc(C(C)(F)F)c2F)c2cc(N3CCN4CCOC[C@@H]4C3)ncc12 [Example P-171, N-((R)-1-(3-(1,1-difluoroethyl)-2-fluorophenyl)ethyl)-7-((S)-hexahydropyrazino[2,1-c][1,4]oxazin-8(1H)-yl)-4-methylpyrido[3,4-d]pyridazin-1-amine] | 0.425 nM | 28.5 nM | –
8 | Cc1c(C#N)cccc1[C@@H](C)Nc1nnc(C)c2cc(F)c(-c3ccc(=O)n(C)c3)cc12 [Example P-172, (R)-3-(1-((6-fluoro-4-methyl-7-(1-methyl-6-oxo-1,6-dihydropyridin-3-yl)phthalazin-1-yl)amino)ethyl)-2-methylbenzonitrile] | 12.5 nM | 457 nM | –
9 | Cc1nnc(N[C@H](C)c2cccc(C(C)(F)F)c2F)c2cc(-c3ccc(=O)n(C)c3)c(F)cc12 [Example P-173, (R)-5-(4-((1-(3-(1,1-difluoroethyl)-2-fluorophenyl)ethyl)amino)-7-fluoro-1-methylphthalazin-6-yl)-1-methylpyridin-2(1H)-one] | 8.31 nM | 573 nM | –
10 | Cc1c(C#N)cccc1[C@@H](C)Nc1nnc(C)c2cnc(-c3ccc(=O)n(C)c3)cc12 [Example P-174, (R)-2-methyl-3-(1-((4-methyl-7-(1-methyl-6-oxo-1,6-dihydropyridin-3-yl)pyrido[3,4-d]pyridazin-1-yl)amino)ethyl)benzonitrile] | 43.5 nM | 1330 nM | –
11 | Cc1nnc(N[C@H](C)c2cccc(C(C)(F)F)c2F)c2cc(-c3ccc(=O)n(C)c3)ncc12 [Example P-175, (R)-5-(1-((1-(3-(1,1-difluoroethyl)-2-fluorophenyl)ethyl)amino)-4-methylpyrido[3,4-d]pyridazin-7-yl)-1-methylpyridin-2(1H)-one] | 15.4 nM | 415 nM | –
12 | Cc1c(C#N)cccc1[C@@H](C)Nc1nnc(N2CC[C@H](N(C)C)C2)c2cnc(N3C[C@H]4C[C@@H]3CO4)cc12 [Example P-176, 3-((R)-1-((7-((1R,4R)-2-oxa-5-azabicyclo[2.2.1]heptan-5-yl)-4-((S)-3-(dimethylamino)pyrrolidin-1-yl)pyrido[3,4-d]pyridazin-1-yl)amino)ethyl)-2-methylbenzonitrile] | 0.708 nM | 120 nM | –
13 | Cc1c(C#N)cccc1[C@@H](C)Nc1nnc(N2CC(N)C2)c2cnc(N3C[C@H]4C[C@@H]3CO4)cc12 [Example P-177, 3-((R)-1-((4-(3-aminoazetidin-1-yl)-7-((1R,4R)-2-oxa-5-azabicyclo[2.2.1]heptan-5-yl)pyrido[3,4-d]pyridazin-1-yl)amino)ethyl)-2-methylbenzonitrile] | 0.541 nM | 451 nM | –
14 | Cc1c(C#N)cccc1[C@@H](C)Nc1nnc(C)c2cc(F)c(N(C)[C@@H]3CCN(C)C3)cc12 [Example P-178, 3-((R)-1-((6-fluoro-4-methyl-7-(methyl((R)-1-methylpyrrolidin-3-yl)amino)phthalazin-1-yl)amino)ethyl)-2-methylbenzonitrile] | 1.1 nM | 54.7 nM | –
15 | Cc1c(C#N)cccc1[C@@H](C)Nc1nnc(C)c2cc(F)c(N(C)[C@H]3CCN(C)C3)cc12 [Example P-179, 3-((R)-1-((6-fluoro-4-methyl-7-(methyl((S)-1-methylpyrrolidin-3-yl)amino)phthalazin-1-yl)amino)ethyl)-2-methylbenzonitrile] | 0.714 nM | 84.7 nM | –
16 | Cc1c(C#N)cccc1[C@@H](C)Nc1nnc(N2CC(N(C)C)C2)c2cnc(N3C[C@H]4C[C@@H]3CO4)cc12 [Example P-180, 3-((R)-1-((7-((1R,4R)-2-oxa-5-azabicyclo[2.2.1]heptan-5-yl)-4-(3-(dimethylamino)azetidin-1-yl)pyrido[3,4-d]pyridazin-1-yl)amino)ethyl)-2-methylbenzonitrile] | 0.491 nM | 53.4 nM | –
17 | Cc1nnc(N[C@H](C)c2cccc(C(F)(F)F)c2F)c2cc(N(C)[C@H]3CCN(C)C3)c(F)cc12 [Example P-181, 6-fluoro-N^1-((R)-1-(2-fluoro-3-(trifluoromethyl)phenyl)ethyl)-N7,4-dimethyl-N^7-((S)-1-methylpyrrolidin-3-yl)phthalazine-1,7-diamine] | 0.711 nM | 223 nM | –
18 | Cc1nnc(N[C@H](C)c2cccc3c2OCC3(F)F)c2cc(N3C[C@@H]4C[C@H]3CN4C)ncc12 [Example P-184, N-((R)-1-(3,3-difluoro-2,3-dihydrobenzofuran-7-yl)ethyl)-4-methyl-7-((1S,4S)-5-methyl-2,5-diazabicyclo[2.2.1]heptan-2-yl)pyrido[3,4-d]pyridazin-1-amine formic acid salt] | 1.02 nM | – | 65.7 nM
19 | Cc1c(C#N)cccc1[C@@H](C)Nc1nnc(C)c2cc(C(F)F)c(N3CCN(C)CC3)cc12 [Example P-185, (R)-3-(1-((6-(difluoromethyl)-4-methyl-7-(4-methylpiperazin-1-yl)phthalazin-1-yl)amino)ethyl)-2-methylbenzonitrile formic acid] | 4.95 nM | – | 118 nM
20 | Cc1c(C#N)cccc1[C@@H](C)Nc1nnc(C)c2cc(CF)c(N3CCN(C)CC3)cc12 [Example P-186, (R)-3-(1-((6-(fluoromethyl)-4-methyl-7-(4-methylpiperazin-1-yl)phthalazin-1-yl)amino)ethyl)-2-methylbenzonitrile] | 1.27 nM | 181 nM | –
